Results taken from patent US20060223812A1, “Treating neurodegenerative conditions” (MAX-PLANCK-GESELLSCHAFT ZUR FORDERUNGDER WISSENSCHAFTEN, …, priority 2004, published 2006).

Legend:
PHFs from htau23 = target: T1, PHFs from htau23 (Homo sapiens, UniProt P10636); test: Filter trapping assay, depolymerisation of PHFs; assay type: biochemical; conditions: PVDF filter, antibody K9JA
T1 construct: made in house; host or cells: E. coli
Method: The effect of compounds on the depolymerisation of PHFs was analysed using a filter trapping assay. This assay monitors aggregated tau which is trapped on a membrane filter, whereas the soluble protein is washed through. Therefore the technique preferably detects larger filaments, similar to the ThS assay.
Aggregates of tau were trapped by filtration through a PVDF-membrane (pore diameter 0.45 μm, Schleicher and Schuell, Düren, Germany) adapted to 96-well dot blot apparatus. The PVDF-membrane was wetted with methanol and rinsed with PBS-buffer before incorporated into the dot blot apparatus. The samples were pipetted into 100 μl of PBS and filtered. The membrane was washed three times with PBS before taken out of the apparatus and blocked with 5% milk powder in PBS for 30 minutes in a rotational shaker at room temperature. The polyclonal antibody K9JA was used as primary antibody and incubated at a dilution of 1:20.000 at room temperature for one hour. […] After three times washing with TBS-Tween the signal was detected using the ECL system (Amersham Pharmacia) and pictures were taken with the digital gel documentation system Fuji film BAS3000 (Raytest, Straubenhardt, Germany). Quantification of the signals was performed with the AIDA-software package (Raytest, Straubenhardt, Germany).
(D) Depolymerisation of PHFs from htau23 measured by filter assay. […]

[1] = system: N2a cells expressing K18/ΔK280; test: Tau aggregation in cells, thioflavine S staining; assay type: cell-based, mouse; conditions: 15 μM emodin
Method: The tau construct K18/ΔK280 was expressed in the mouse neuroblastoma cell line N2a in an inducible manner under the control of the reverse tetracycline-controlled transactivator (rtTA) as described elsewhere (Gossen & Bujard, 2002). The inducible N2a/K18ΔK280 cells were cultured in MEM medium supplemented with 10% fetal calf serum, 2 mM glutamine and 0.1% nonessential amino acids. The expression of K18/ΔK280 was induced by addition 1 μg doxycyclin per 1 ml medium. The effect of aggregation inhibition was observed by adding the inhibitor emodin (15 μM). After 3-7 days the cells were harvested and tested for tau aggregation, thioflavin S fluorescence, and viability.
The levels and solubility of the K18/ΔK280 tau protein were determined by the method of Greenberg and Davies (1990) which makes use of the insolubility of protein aggregates after treatment with sarkosyl. The supernatant and sarcosyl-insoluble pellets were analysed by Western blotting with the pan-tau antibody K9JA and analysed by densitometry. Aggregation of tau in cells was tested by the fluorescence of thioflavine S. ThS signals were scored in three independent fields containing 40 cells each.
Two parallel cell cultures were incubated, one with 1 μg/ml doxycyclin (to induce the expression of the protein), another with 1 μg/ml doxycyclin and 15 μM emodin for 3 days. […]

Aβ1-40 fibrils = target: T2, Aβ1-40 fibrils (Homo sapiens, UniProt P05067); test: Disassembly of pre-formed Aβ fibrils (thioflavine T); assay type: biochemical; conditions: 60 μM compound, 10 μM Aβ1-40
T2 construct: Commercial human Aβ1-40 was obtained from Calbiochem; purchased Calbiochem
Method: Besides the activity of the compounds towards tau fibres, their specificity is an important issue, i.e. the ability to discriminate between different types of aggregates. Therefore, an analysis of the influence of the compounds (60 μM) on amyloid fibrils made from the Aβ1-40 peptide, both in terms of inhibition of de novo filament formation and depolymerisation was performed (FIGS. 8A-B). These fibres are also abundant in Alzheimer brain and contain a core of cross-β-structure, but are located outside the cells, in contrast to the intracellular PHFs.
Commercial human Aβ1-40 was obtained from Calbiochem (Schwalbach, Germany) and stored at −20° C. The AD peptide was routinely dissolved in 100% DMSO to obtain a 2 mM stock solution, which was subsequently stored frozen at −20° C. […] For analysis 5 μl of this solution were added to 45 μl 10 mM phosphate buffer containing 6 μM thioflavine T, pH 6.0, after 30 minutes incubation at room temperature the fluorescence was measured at 504 nm emission by an excitation of 409 nm. To correlate fibril morphology with the fluorescence signal, aliquots of the Aβ1-40 solutions were simultaneously prepared for electron microscopy. […]

T1 sequence (P10636 1-352 isoform P10636-2): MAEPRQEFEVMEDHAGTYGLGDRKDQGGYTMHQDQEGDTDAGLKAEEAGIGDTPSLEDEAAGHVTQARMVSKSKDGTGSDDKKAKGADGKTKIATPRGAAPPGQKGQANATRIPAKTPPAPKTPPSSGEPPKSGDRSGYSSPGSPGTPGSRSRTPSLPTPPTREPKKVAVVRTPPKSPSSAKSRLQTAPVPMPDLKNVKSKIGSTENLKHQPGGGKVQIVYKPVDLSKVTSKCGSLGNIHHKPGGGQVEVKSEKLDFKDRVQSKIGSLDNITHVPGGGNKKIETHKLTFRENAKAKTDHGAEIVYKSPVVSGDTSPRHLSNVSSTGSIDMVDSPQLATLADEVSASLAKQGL
T2 sequence (P05067 672-711): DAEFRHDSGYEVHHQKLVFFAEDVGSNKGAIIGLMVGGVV

Row | Compound | DC50 (PHFs from htau23) [nM] | inhibition of aggregation as measured by ThS [1] | cells with ThS signal ([1]; 3 days induction, without emodin 28%) [%] | depolymerisation activity, Aβ fibrils (Aβ1-40 fibrils) [%]
1 | Cc1cc(O)c2c(c1)C(=O)c1cc(O)cc(O)c1C2=O [Emodin, 1,3,8-Trihydroxy-6-methyl-anthraquinone] | ~500 | about 2 fold | 15 | 
2 | O=C(c1ccccc1)c1ccc(O)c(O)c1O [PHF005, 1-Phenyl-1-(2,3,4-trihydroxy-phenyl)-methanone] |  |  |  | ~50
